Data on nine molecules can be found in BindingDB's records for doi:10.1016/S0960-894X(00)80020-7 (1993).

The target of test [1] is Thymidine kinase (Human herpesvirus 1). Nature of the test: Inhibition of HSV-1 Thymidine kinase.
Test [2] has the same target. Nature of the test: Binding affinity against HSV-1 Thymidine kinase.

A value given as a limit tells only on which side of the number the result lay.

Broadly, the IC50 is the point on the concentration scale where inhibition reaches its midpoint. The low end stands for greater potency, the high end for weaker potency. In test [1], `CCCO[C@@H]1O[C@@H](n2cc(C)c(=O)[nH]c2=O)C[C@H]1O` [1-((2R,4R,5R)-4-Hydroxy-5-propoxy-tetrahydro-furan-2-yl)-5-methyl-1H-pyrimidine-2,4-dione] displayed an IC50 above 50 µM.

In test [1], `CCO[C@@H]1O[C@@H](n2cc(C)c(=O)[nH]c2=O)C[C@H]1O` [1-((2R,4R,5R)-5-Ethoxy-4-hydroxy-tetrahydro-furan-2-yl)-5-methyl-1H-pyrimidine-2,4-dione] gave an IC50 above 50 µM. The molecule `Cc1cn([C@H]2C[C@@H](O)[C@H](OC(C)(C)C)O2)c(=O)[nH]c1=O` [1-((2R,4R,5R)-5-tert-Butoxy-4-hydroxy-tetrahydro-furan-2-yl)-5-methyl-1H-pyrimidine-2,4-dione] displayed an IC50 in test [1] above 50 µM. For orientation: Ki means the equilibrium dissociation constant of an inhibitor or competing ligand from its target. A higher Ki goes with lower affinity. Take `C#C[C@H]1O[C@@H](n2cc(C)c(=O)[nH]c2=O)C[C@@H]1O` [1-((2R,4S,5R)-5-Ethynyl-4-hydroxy-tetrahydro-furan-2-yl)-5-methyl-1H-pyrimidine-2,4-dione]: half-maximal inhibition in test [1] (IC50) was put at 3 µM. In test [2], this molecule gave a Ki of 2 µM. In test [1], `CCCO[C@H]1O[C@@H](n2cc(C)c(=O)[nH]c2=O)C[C@@H]1O` [1-((2R,4S,5S)-4-Hydroxy-5-propoxy-tetrahydro-furan-2-yl)-5-methyl-1H-pyrimidine-2,4-dione] returned an IC50 above 50 µM. Same read-out and setting: with `CCO[C@H]1O[C@@H](n2cc(C)c(=O)[nH]c2=O)C[C@@H]1O` [1-((2R,4S,5S)-5-Ethoxy-4-hydroxy-tetrahydro-furan-2-yl)-5-methyl-1H-pyrimidine-2,4-dione] the figure was 50 µM; with `Cc1cn([C@H]2C[C@H](O)[C@@H](OC(C)(C)C)O2)c(=O)[nH]c1=O` [1-((2R,4S,5S)-5-tert-Butoxy-4-hydroxy-tetrahydro-furan-2-yl)-5-methyl-1H-pyrimidine-2,4-dione], above 50 µM.

The molecule `Cc1cn([C@H]2C[C@@H](O)[C@H](OCCCc3ccccc3)O2)c(=O)[nH]c1=O` [1-[(2R,4R,5R)-4-Hydroxy-5-(3-phenyl-propoxy)-tetrahydro-furan-2-yl]-5-methyl-1H-pyrimidine-2,4-dione] came in with an IC50 in test [1] above 50 µM.

Consider `Cc1cn([C@H]2C[C@H](O)[C@@H](OCCCc3ccccc3)O2)c(=O)[nH]c1=O` [1-[(2R,4S,5S)-4-Hydroxy-5-(3-phenyl-propoxy)-tetrahydro-furan-2-yl]-5-methyl-1H-pyrimidine-2,4-dione], for which it took 10 µM to reach half-maximal inhibition in test [1] (IC50). This molecule returned an inhibitory constant (Ki) in test [2] of 4.3 µM.
